Experimental data taken from patent publication US20230233690A1, “ANDROGEN RECEPTOR PROTEIN DEGRADERS” (THE REGENTS OF THE UNIVERSITY OF MICHIGAN, priority 2020, published 2023).
Like-named read-outs stand apart in the source and are kept apart here.

Assays:
[1] = PK parameters in male ICR mice; assay type: in vivo
Description: (§1) The pharmacokinetics (PK) of representative Compounds of the Disclosure were evaluated in mice or rats to provide an assessment of their oral bioavaibility. All animal experiments were performed under the guidelines of the University of Michigan Committee for Use and Care of Animals and using an approved animal protocol.

[2] = target: T1, AR protein (Homo sapiens, UniProt P10275); assay: Western blotting of AR protein degradation in VCaP cells; assay type: cell-based
T1 construct: endogenous in cells; host or cells: VCaP
T1 sequence (P10275 1-920): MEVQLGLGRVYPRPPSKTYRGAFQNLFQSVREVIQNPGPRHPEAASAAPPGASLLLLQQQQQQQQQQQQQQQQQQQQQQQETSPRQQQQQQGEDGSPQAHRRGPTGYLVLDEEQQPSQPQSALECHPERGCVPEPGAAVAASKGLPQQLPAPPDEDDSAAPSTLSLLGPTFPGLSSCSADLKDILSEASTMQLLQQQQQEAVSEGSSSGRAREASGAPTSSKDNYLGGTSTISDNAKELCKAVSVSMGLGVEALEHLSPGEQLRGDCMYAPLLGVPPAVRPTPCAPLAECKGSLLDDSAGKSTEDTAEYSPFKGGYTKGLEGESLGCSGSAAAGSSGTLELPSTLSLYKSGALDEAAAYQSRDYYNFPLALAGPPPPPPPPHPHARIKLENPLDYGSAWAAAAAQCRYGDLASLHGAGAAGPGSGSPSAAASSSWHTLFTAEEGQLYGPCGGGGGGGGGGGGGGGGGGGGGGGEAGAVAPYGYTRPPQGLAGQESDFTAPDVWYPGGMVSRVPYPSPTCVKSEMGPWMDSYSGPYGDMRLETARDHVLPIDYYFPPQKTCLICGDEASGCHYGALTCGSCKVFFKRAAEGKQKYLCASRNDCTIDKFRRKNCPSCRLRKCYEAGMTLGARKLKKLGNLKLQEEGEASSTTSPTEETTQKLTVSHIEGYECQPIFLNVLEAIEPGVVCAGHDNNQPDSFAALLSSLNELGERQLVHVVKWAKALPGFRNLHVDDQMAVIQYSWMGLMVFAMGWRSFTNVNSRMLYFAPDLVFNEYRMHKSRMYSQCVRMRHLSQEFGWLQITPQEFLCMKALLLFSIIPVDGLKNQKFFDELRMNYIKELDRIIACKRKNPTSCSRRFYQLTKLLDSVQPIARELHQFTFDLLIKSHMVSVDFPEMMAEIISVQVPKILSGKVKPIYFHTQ
Description: The treated cells were lysed with RIPA buffer. […] GAPDH was used as a loading control.
Bands were quantified with ImageJ software. The relative numbers of each band obtained from normalization with its corresponding GAPDH level were compared with Prism 8 software. The DC50 values were produced from Prism 8, and the DC90 values were calculated with an equation=Bottom+(Top−Bottom)/(1+10^((Log EC50−X)*HillSlope) based on DC50 and Hillslope values.

[3] = PK parameters in male mice (Table 9); assay type: in vivo; details: for Vd: read-out: Vss
Description: as §1

[4] = ICR, mouse, in vivo, IV 1 mg/kg
[5] = ICR, mouse, in vivo, IV 2 mg/kg

Structure (SMILES) | % AR protein degradation in VCaP Cells ([2]; 0.001 μM) [%] | % AR protein degradation in VCaP Cells ([2]; 0.01 μM) [%] | % AR protein degradation in VCaP Cells ([2]; 0.1 μM) [%] | % AR protein degradation in VCaP Cells ([2]; 1 μM) [%] | AUC(0-t) ([3]; IV 1 mg/kg) [ng·h/mL] | T1/2 ([3]; IV 1 mg/kg) [h] | AUC(0-t) ([3]; PO 3 mg/kg) [ng·h/mL] | Cmax ([3]; PO 3 mg/kg) [ng/mL] | T1/2 ([3]; PO 3 mg/kg) [h] | Tmax ([3]; PO 3 mg/kg) [h] | F ([3]; PO 3 mg/kg vs IV 1 mg/kg) [%] | further results
CC1(C)[C@H](NC(=O)c2ccc(N3CCN(CC4CCN(c5ccc6c(c5)C(=O)N(C5CCC(=O)NC5=O)C6=O)CC4)CC3)cc2)C(C)(C)[C@H]1Oc1ccc(C#N)c(Cl)c1 (stereo partly drawn) [Cpd. No. 46, N-((1r,3r)-3-(3-chloro-4-cyanophenoxy)-2,2,4,4-tetramethylcyclobutyl)-4-(4-((1-(2-(2,6-dioxopiperidin-3-yl)-1,3-dioxoisoindolin-5-yl)piperidin-4-yl)methyl)piperazin-1-yl)benzamide] | – | – | – | – | – | – | – | – | – | – | – | AUC(0-t) ([1]; IV 2 mg/kg): 13298.5 ng·h/mL; Cl-obs ([1]; IV 2 mg/kg): 1.2 mL/min/kg; Vss ([1]; IV 2 mg/kg): 2.7 L/kg; AUC(0-t) ([1]; PO 5 mg/kg): 22360.5 ng·h/mL; Cmax ([1]; PO 5 mg/kg): 1304.3 ng/mL; F ([1]; PO 5 mg/kg): 67.3%; T1/2 ([1]; PO 5 mg/kg): 18.8 h
CN(c1ccc(C#N)c(Cl)c1)[C@H]1CC[C@H](NC(=O)c2ccc(N3CC(N4CCN(c5ccc6c(c5)C(=O)N(C5CCC(=O)NC5=O)C6=O)CC4)C3)cc2)CC1 (stereo partly drawn) [compound 240, N-((1r,4r)-4-((3-chloro-4-cyanophenyl)(methyl)amino)cyclohexyl)-4-(3-(4-(2-(2,6-dioxopiperidin-3-yl)-1,3-dioxoisoindolin-5-yl)piperazin-1-yl)azetidin-1-yl)benzamide] | 82 | 87 | 88 | 75 | 4234 | 7.5 | 8637 | 484 | 26.8 | 4.7 | 67 | clearance [3, 4]: 3.5 mL/min/kg; Vss ([3]; IV 1 mg/kg): 2.1 L/kg
CN(c1ccc(C#N)c(Cl)c1)[C@H]1CC[C@H](NC(=O)c2ccc(N3CCN(C4CCN(c5ccc6c(c5)C(=O)N(C5CCC(=O)NC5=O)C6=O)CC4)CC3)cc2)CC1 (stereo partly drawn) [Cpd. No. 235, N-((1r,4r)-4-((3-chloro-4-cyanophenyl)(methyl)amino)cyclohexyl)-4-(4-(1-(2-(2,6-dioxopiperidin-3-yl)-1,3-dioxoisoindolin-5-yl)piperidin-4-yl)piperazin-1-yl)benzamide] | 94 | 99 | 99.9 | – | 3366 | 7.6 | 3001 | 256.1 | 7.0 | 4.7 | 29 | Vd [3, 4]: 2.64 L/kg; Cl ([3]; IV 1 mg/kg): 4.5 mL/min/kg
N#Cc1ccc(O[C@H]2CC[C@H](NC(=O)c3ccc(N4CCN(C5CN(c6ccc7c(c6)C(=O)N(C6CCC(=O)NC6=O)C7=O)C5)CC4)cc3)CC2)cc1Cl (stereo partly drawn) [compound 225, N-((1r,4r)-4-(3-chloro-4-cyanophenoxy)cyclohexyl)-4-(4-(1-(2-(2,6-dioxopiperidin-3-yl)-1,3-dioxoisoindolin-5-yl)azetidin-3-yl)piperazin-1-yl)benzamide] | 61 | 48 | 15 | −23 | – | – | – | – | – | – | – | clearance [3, 5]: 4.33 mL/min/kg; half-life [3, 5]: 6.58 h; AUC(0-t) ([3]; ICR, mouse, in vivo, IV 2 mg/kg, read-out: AUC(0-t)): 6760 ng·h/mL; Vd [3, 5]: 2.23 L/kg; half-life ([3]; ICR, mouse, in vivo, PO 5 mg/kg): 5.8 h; AUC(0-t) ([3]; ICR, mouse, in vivo, PO 5 mg/kg, read-out: AUC(0-t)): 13100 ng·h/mL; Cmax ([3]; ICR, mouse, in vivo, PO 5 mg/kg, read-out: Cmax): 2130 ng/mL; Tmax ([3]; ICR, mouse, in vivo, PO 5 mg/kg, read-out: Tmax): 2 h; F ([3]; PO 5 mg/kg vs IV 2 mg/kg): 77%
